According to patent publication US20200037609A1, “HERBICIDAL COMPOSITIONS AND METHODS OF USE THEREOF” (The Regents of the University of California, priority 2017, published 2020):

Legend:
[1] = biological target: T1, Arabidopsis thaliana housekeeping DHAD (pDHAD) (Arabidopsis thaliana, UniProt Q9LIR4); assay: DHAD enzymatic inhibition assay (phenylhydrazine derivatization, LC-MS); format: biochemical
T1 construct: […]; 6xHis (N); made in house; host or cells: E. coli BL21 (DE3)
T1 sequence (Q9LIR4 35-608): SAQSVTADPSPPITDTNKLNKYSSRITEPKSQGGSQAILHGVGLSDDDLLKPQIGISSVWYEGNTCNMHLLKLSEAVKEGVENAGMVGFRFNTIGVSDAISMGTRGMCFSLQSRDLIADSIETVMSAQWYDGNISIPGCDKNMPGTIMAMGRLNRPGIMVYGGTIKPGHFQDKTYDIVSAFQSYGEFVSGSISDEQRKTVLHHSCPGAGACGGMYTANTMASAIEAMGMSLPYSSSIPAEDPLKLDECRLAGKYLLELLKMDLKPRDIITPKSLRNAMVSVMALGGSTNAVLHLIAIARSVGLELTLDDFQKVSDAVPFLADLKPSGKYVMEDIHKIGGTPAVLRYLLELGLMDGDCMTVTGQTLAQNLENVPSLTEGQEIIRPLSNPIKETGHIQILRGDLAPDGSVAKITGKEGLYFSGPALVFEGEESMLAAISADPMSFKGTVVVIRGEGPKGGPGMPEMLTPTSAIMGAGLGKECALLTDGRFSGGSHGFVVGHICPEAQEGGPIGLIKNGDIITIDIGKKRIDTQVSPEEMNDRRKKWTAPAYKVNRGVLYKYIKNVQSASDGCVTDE
Experimental: (§1) Enzymatic activity reactions were carried out in […] volumes containing 50 mM storage buffer, 10 mM (±)-Sodium 2,3-dihydroxyisovalerate hydrate (DHAD substrate) and 1 μM purified DHAD enzyme. After incubation for 30 minutes at 30° C., the reaction was stopped by adding an equal volume of ethanol. 1/10 volumes of 100 mM phenylhydrozine was added at room temperature for 30 minutes to derivatize the DHAD-synthesized molecule (3-methyl-2-oxo-butanoic acid) into a detectable derivatization product (DDP). See FIG. 5A for an overview of reactions.
Inhibition assays were carried out according to the reactions described above. First, phenylhydrozine was added to 3-methyl-2-oxo-butanoic acid to validate the derivatization reaction. Next, DHAD substrate was incubated with 1 μM purified DHAD enzyme from A. thaliana (with or without DMSO) then derivatized with phenylhydrozine to validate the activity of the purified DHAD enzyme. Finally, DHAD substrate was incubated with 1 μM purified DHAD enzyme from A. thaliana and 1 mM aspterric acid in DMSO then derivatized with phenylhydrozine to determine if DHAD was inhibited by aspterric acid. 20 μL of the reaction mixture was subject to LC-MS analysis, and DDP was detected by UV absorption at 350 nm. The area of the peak that corresponded to DDP was used to quantify the amount of (±)-Sodium 2,3-dihydroxyisovalerate hydrate that was converted into DDP.
Inhibition assays were carried out according to the reactions described above by incubating purified DHAD enzymes (either the housekeeping DHAD from Aspergillus terreus, the housekeeping DHAD from Arabidopsis thaliana, or AstD from Aspergillus terreus) with aspterric acid at various concentrations. For AstD, up to 8 mM of aspterric acid was tested. […] The half maximal inhibitory concentration (IC50) and the effect of aspterric acid on the enzyme kinetics of each purified DHAD enzyme was calculated based on the initial reaction rates observed in the inhibition assays.
(§2) Biochemical assay of DHADs. […] The area of the HPLC peak with UV absorption at 350 nm was used to quantify the amount of 6. […]

AstD = biological target: T2, AstD (Aspergillus terreus, UniProt Q0CPG9); assay: as above; format: biochemical; conditions: 8 mM aspterric acid
T2 construct: […]; 6xHis; made in house; host or cells: E. coli BL21 (DE3)
T2 sequence (Q0CPG9 112-598): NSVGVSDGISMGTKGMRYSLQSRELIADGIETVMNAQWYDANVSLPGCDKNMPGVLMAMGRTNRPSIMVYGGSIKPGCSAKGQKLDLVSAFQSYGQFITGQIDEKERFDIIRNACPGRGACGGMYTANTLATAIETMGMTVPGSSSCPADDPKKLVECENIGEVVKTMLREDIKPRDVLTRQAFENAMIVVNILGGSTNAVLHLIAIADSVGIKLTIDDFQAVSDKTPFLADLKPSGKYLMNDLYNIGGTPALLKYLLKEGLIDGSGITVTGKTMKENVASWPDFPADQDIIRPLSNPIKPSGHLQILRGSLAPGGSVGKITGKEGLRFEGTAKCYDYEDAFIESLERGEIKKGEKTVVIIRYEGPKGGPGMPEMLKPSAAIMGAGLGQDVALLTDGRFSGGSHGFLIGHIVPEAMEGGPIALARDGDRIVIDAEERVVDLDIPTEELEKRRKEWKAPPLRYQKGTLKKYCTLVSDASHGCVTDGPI
Experimental: as §1
Inhibition assays were carried out according to the reactions described above by incubating purified DHAD enzymes (either the housekeeping DHAD from Aspergillus terreus, the housekeeping DHAD from Arabidopsis thaliana, or AstD from Aspergillus terreus) with aspterric acid at various concentrations. For AstD, up to 8 mM of aspterric acid was tested. Derivatization with phenylhydrozine, LC-MS analysis, and DDP detection by UV absorption at 350 nm was carried out. The half maximal inhibitory concentration (IC50) and the effect of aspterric acid on the enzyme kinetics of each purified DHAD enzyme was calculated based on the initial reaction rates observed in the inhibition assays.
as §2

[2] = system: S. cerevisiae ΔILV3 expressing AstD; assay: Growth inhibition of S. cerevisiae ΔILV3 in ILV dropout media; format: cell-based; conditions: Saccharomyces cerevisiae, read-out: IC50 of growth inhibition, yeast expressing AstD
Experimental: Growth inhibition assay of S. cerevisiae on plates or in the tubes. S. cerevisiae was grown in isoleucine, leucine and valine (ILV) dropout media (20 g/L glucose, 0.67 g/L Difco™ Yeast Nitrogen Base w/o amino acids, 18 mg/L adenine, arginine 76 mg/L, asparagine 76 mg/L, aspartic acid 76 mg/L, glutamic acid 76 mg/L, histidine 76 mg/L, lysine 76 mg/L, methionine 76 mg/L, phenylalanine 76 mg/L, serine 76 mg/L, threonine 76 mg/L, tryptophan 76 mg/L, tyrosine 76 mg/L) to test growth inhibition of AA on S. cerevisiae. S. cerevisiae was incubated at 28° C. until OD600 of the control strain without AA treatment reached about 0.8. The ratio of yeast OD600 in media with AA treatment to yeast OD600 in media without AA was calculated as the percentage of growth inhibition. The inhibition curve was plotted as percentage of inhibition versus AA concentrations. […] The growth curves of TY05, TY06 and TY07 were also plotted (FIG. 29A-29D). The OD600 was recorded for every 20 minutes over a total of 50 h. The inhibition percentage can be calculated by following equation: […]

Saccharomyces cerevisiae = assay: Yeast growth inhibition assay on plates; format: cell-based; conditions: 250 μM aspterric acid
Experimental: Saccharomyces cerevisiae was plated onto dropout media that lacked isoleucine, leucine, and valine, either with or without 250 μM aspterric acid. Saccharomyces cerevisiae was also plated onto rich media that contained all amino acids along with 250 μM aspterric acid. Plates were incubated at 30° C.

For `CC(C)=C1CC[C@]23CO[C@H](C2)[C@@](O)(C(=O)O)CC[C@@H]13` [aspterric acid], the “pDHAD activity in presence of AA” value ([1]; 10 μM AA) was “abolished pDHAD activity”, the “DHAD enzymatic activity in presence of aspterric acid” value ([1]; 1 mM aspterric acid, 1 μM enzyme) was “completely inhibited” and the “mode of inhibition of pDHAD” value ([1]; kinetic analyses) was “competitive inhibitor”. The “inhibition of AstD” value (AstD) was “no inhibition”, the “inhibition of AstD” value (AstD; listed as AA) was “not inhibited” and the IC50 [2] was about 200 µM. For the same compound, the “growth of S. cerevisiae on media lacking isoleucine, leucine and valine” value (Saccharomyces cerevisiae) was “inhibited the growth” and the “growth of S. cerevisiae on rich media” value (Saccharomyces cerevisiae; all amino acids present) was “grew normally”.
